In patent US20080206253A1, “Method For Preventing or Treating Pain in a Mammal” (priority 2005, published 2008):
Entries after “also recorded” stand apart in the source; their conditions may differ. No end group written: not given here.

Columns and labels:
Format in all cases: in vivo, rat
[1] = test system: rats, formalin-injected hind paw; assay: Formalin-induced flinching (paw formalin test); conditions: IT injection 3-30 μg 10 minutes prior to formalin; 30 μg: P<0.05 versus vehicle
Procedure: In recent work it was shown that inhibition of spinal p38 MAP kinase attenuated formalin-induced flinching. Svensson et al., J Neurochem 86: 1534-1544, 2003b. To examine the contribution of p38α and p38β in this experimental model of hyperalgesia, animals were injected with p38α, p38β AS or MS IT for five days. These animals were then examined on the formalin test. Unilateral intraplantar formalin solution (2.5%) caused a biphasic flinching pattern where the first 9 minutes are referred to as phase I and the following 50 minutes (min 10-60) as phase II. Yaksh et al., J Neurosci 21: 5847-5853, 2001a. The phase II flinching is considered to represent afferent input initiated spinal facilitation. Dickenson and Sullivan, Neurosci Lett 83: 207-211, 1987; Puig and Sorkin, Pain 64: 345-355, 1996. […] To further confirm the role of p38 to injury-induced pain behavior, a pharmacological inhibitor was also studied: SB203580, a p38α/β non-selective inhibitor.
To quantify formalin induced flinching, an automated sensing system was employed. Yaksh et al., J Appl Physiol 90: 2386-2402, 2001b. Briefly, a soft metal band was placed on the hind paw of the animal being tested. Animals were allowed to acclimate in individual Plexiglas chambers for 30 min before being moved to a test chamber. Just before the animals were placed into the test chamber, they were briefly restrained in a cloth towel, and 2.5% formalin (50 μl) was injected into the dorsal side of the banded paw. Nociceptive behavior was quantified by automatically counting the incidences of spontaneous flinching or shaking of the injected paw. The flinches were counted for 1-min periods for 60 minutes and the flinch data are expressed as number of flinches per min and total flinches observed during phase I (0-9 min) and phase II (10-60 min).

PGE2 = assay: IT SP-evoked spinal PGE2 release (intrathecal dialysis, ELISA)
Text: It was previously shown that intrathecal injection of SP and NMDA, but not vehicle, evokes PGE2 release assessed by spinal dialysis. Hua et al., Neuroscience 89: 525-534, 1999b.; Svensson et al., Neuroreport 14: 1153-1157, 2003a. It has been reported that PLA2 which generates free arachidonic acid necessary for eicosanoid synthesis, requires phosphorylation to become fully activated and that this phosphorylation can be mediated by p38 MAP kinase. Borsch-Haubold et al., Eur J Biochem 245: 751-759, 1997. The effect of spinal p38α/β inhibition was assessed on IT S P-evoked PGE2 release by injecting SB203580 15 min prior to IT SP. Resting release of PGE2 was determined after a washout period of 30 min. In the absence of pretreatment, baseline dialysate concentrations were determined to be 243±13 femtomol/100 μl perfusate (N=20). If SP (30 nmol) produced a 6-8 fold increase in PGE2 level in intrathecal CSF (FIG. 8A). […] If injection of vehicle prior to IT SP ad no effect on IT SP-evoked PGE2 release.
(A) Bar graph showing PGE2 concentration (fmol/100 μl) measured in cerebrospinal fluid collected by in vivo spinal dialysis of conscious rats before and after IT injection of substance P(SP, 30 nmol) and SB302580 (30 μg). Spinal dialysate is removed and assayed for PGE2 by ELISA at baseline (B, average of two 15 min fractions collected prior to IT injection of SP) and F1: 0-15 minutes, F2: 15-30 minutes and F3: 30-45 minutes and 45-60 minutes after SP injection. Rats received IT SP or IT SB203580 (α/βp38 inhibitor) 15 minutes prior to IT SP. (B) PGE2 release is presented as area under curve (AUC) calculated 60 minutes after IT injection of SP with or without pretreatment with p38 inhibitors. […] Each bar represents the average and SEM for 4-8 rats per group and (*) represents P<[…] versus baseline.
Intrathecal Dialysis & PGE2 assay. Dialysis experiments were conducted in unanethetized rats 4-5 days after the implant. […] The concentration of PGE2 in spinal dialysate was measured by ELISA using a commercially available kit (Assay Designs 90001, Assay Designs, Ann Arbor, Mich.). […]

[2] = test system: phosphorylated p38 (P-p38); assay: IT substance P-evoked spinal p38 phosphorylation (Western blot); conditions: IT SP 30 nmol, at 30 min, N=6, P<0.05
Procedure: (§1) Yaksh et al., Nature 286: 155-157, 1980; Yaksh, Trends Pharmacol Sci 20: 329-337, 1999. […] Malmberg and Yaksh, Science 257: 1276-1279, 1992; Svensson et al., J Neurochem 86: 1534-1544, 2003. […] To investigate the contribution of p38α and p38β to SP-evoked hyperalgesia and p38 phosphorylation, spinal delivery of p38α and p38β AS and MS was carried out. Thermal withdrawal latencies was assessed after IT injection of SP and lumbar spinal cords collected immediately to compare the degree of spinal p38 phosphorylation at the hypothesized time of peak phosphorylation. IT injection of SP into the MS group produced an expected reduction of thermal withdrawal latency in comparison with IT saline injection into to vehicle treated animals (FIG. 7C). […] In contrast, IT SP-induced thermal hyperalgesia was attenuated in rats which had received p38β AS (FIG. 7E). […] Stripping and reprobing the western blot membranes confirmed that p38α protein expression was knocked down in p38α AS treated group (FIG. 7D) as well as p38β in the p38β AS group (FIG. 7F).
(A) Graph displaying paw withdrawal latency (PWL) plotted versus time. […] (B) Representative western blots showing levels of P-p38, total p38 and β-actin in lumbar spinal cord at different time points after IT injection of SP (30 nmol). IT-SP induced p38 phosphorylation peaks 30 minutes after SP injection. (C, E) Graph showing PWL assessed 15 and […] after bolus injection of IT saline or IT SP injection in rats treated with IT ACSF, MS (30 μg), p38α AS (30 fig) or p38β AS (20 μg) daily for five days. […] IT injection of MS or ACSF had no effect on IT SP-evoked thermal hyperalgesia. Each time point represents the mean ±SEM (n=4-5 per group). (D, F) Representative western blots showing the level of P-p38, p38α and p38β and β-actin protein expression assessed 30 minutes after IT SP injection.
Western blot. Prior to sacrifice, rats were deeply anesthetized and after decapitation the spinal cords were ejected from the vertebral column by a saline-filled syringe. The lumbar part of the spinal cord was immediately homogenized in extraction buffer (50 mM Tris buffer, pH 8.0, containing 0.5% Triton X-100, 150 mM NaCl, 1 mM EDTA, phosphatase and protease inhibitors) by sonication. […] After washing, the antibody-protein complexes were probed with appropriate secondary antibodies labeled with horseradish peroxidase for 1 hr at room temperature and detected with chemiluminescent reagents (SuperSignal, Pierce, Rockford, Ill.). […] Intensity of immunoreactive bands was quantified using ImageQuant software (Molecular Dynamics, Sunnyvale, Calif.). p38 immuno-positive bands were normalized relative to β-actin.

[3] = test system: rats, IT SP (spinal NK-1 receptors); assay: IT substance P-evoked thermal hyperalgesia (paw withdrawal latency, Hargreaves device); conditions: IT SP 30 nmol at T=0, versus IT saline
Procedure: as §1
Nociceptive models. To directly induce spinal sensitization, rats received intrathecal injections of sP (30 nmol) which activates spinal NK-1 receptors and produces thermal hyperalgesia. Hua et al., Neuroscience 89: 525-534, 1999a; Piercey et al., Science 214: 1361-1363, 1981; Yashpal and Henry, Can J Physiol Pharmacol 61: 303-307, 1983. Thermally evoked paw withdrawal responses were assessed using a Hargreaves type testing device. Dirig et al., J Neurosci Methods 76: 183-191, 1997. Briefly, rats were placed on a glass surface maintained at 30° C. The thermal nociceptive stimulus originates from a projection bulb below the glass surface, and the stimulus is delivered separately to one hind paw at a time. The animals were allowed to acclimatize on the glass surface and basal paw withdrawal latencies (PWL) were then assessed for left and right paws at time (T)=−40, =30 and −20 min and expressed as the mean of the six measurements. At T=−10 min the animals received intrathecal vehicle or drug and at T=0, sP was injected. Withdrawal latencies were then assessed at T=15, 30, 45 and 60 min. Paw withdrawal latency for each group was expressed as the mean at each time point.

## C[S+]([O-])c1ccc(-c2nc(-c3ccncc3)c(-c3ccc(F)cc3)[nH]2)cc1 (stereo not drawn) [SB203580, reference compound]
[1]
  flinching during phase II: dose-dependent attenuation; also recorded: statistically different
PGE2; 30 μg IT prior to SP, AUC 60 minutes after IT SP, unpaired t-test P<0.05
  SP-evoked release of PGE2, AUC between groups: significantly lower
PGE2; pretreatment 30 μg IT, 15 min prior to IT SP 30 nmol
  IT SP-evoked PGE2 release: prevented IT SP-evoked PGE2 release

## SP: substance P (Sigma), injected IT to activate spinal NK-1 receptors and produce thermal hyperalgesia (RPKPQQFFGLM-NH2; UniProt P20366 58-68, looked up) [reference compound]
[2]
  phosphorylation of spinal p38, peak effect, increase as compared to saline group: 224±41%
[3]
  paw withdrawal latency (PWL) after IT injection: transient decrease in PWL
PGE2; IT SP 30 nmol, spinal dialysis, conscious rats
  increase in PGE2 level in intrathecal CSF: 6-8 fold
